In PMC11167047 (Cell Death Discovery, 2024):

How the values were obtained:
Experiment in all cases: kinome screen (33PanQinase)
Format in all cases: biochemical
CAMKK2 = biological target: T1, CAMKK2 (Homo sapiens, UniProt Q96RR4)
T1 construct: purchased Reaction Biology Europe GmbH (formerly ProQinase)
Procedure: (§1) The Kinome Screening was performed by Reaction Biology Europe GmbH (http://reactionbiology.com; Freiburg i. Br., Germany).

CDC42BPA = biological target: T2, CDC42BPA (Homo sapiens, UniProt Q5VT25)
T2 construct: purchased Reaction Biology Europe GmbH (formerly ProQinase)
Procedure: as §1

CDK1/CycB1 = biological target: T3, CDK1/CycB1 (Homo sapiens, UniProt P06493)
T3 construct: purchased Reaction Biology Europe GmbH (formerly ProQinase)
Procedure: as §1

CDK2/CycD1 = biological target: T4, CDK2/CycD1 (Homo sapiens, UniProt P24941)
T4 construct: purchased Reaction Biology Europe GmbH (formerly ProQinase)
Procedure: as §1

CDK8/CycC = biological target: T5, CDK8/CycC (Homo sapiens, UniProt P49336)
T5 construct: purchased Reaction Biology Europe GmbH (formerly ProQinase)
T5 sequence (P49336 whole entry): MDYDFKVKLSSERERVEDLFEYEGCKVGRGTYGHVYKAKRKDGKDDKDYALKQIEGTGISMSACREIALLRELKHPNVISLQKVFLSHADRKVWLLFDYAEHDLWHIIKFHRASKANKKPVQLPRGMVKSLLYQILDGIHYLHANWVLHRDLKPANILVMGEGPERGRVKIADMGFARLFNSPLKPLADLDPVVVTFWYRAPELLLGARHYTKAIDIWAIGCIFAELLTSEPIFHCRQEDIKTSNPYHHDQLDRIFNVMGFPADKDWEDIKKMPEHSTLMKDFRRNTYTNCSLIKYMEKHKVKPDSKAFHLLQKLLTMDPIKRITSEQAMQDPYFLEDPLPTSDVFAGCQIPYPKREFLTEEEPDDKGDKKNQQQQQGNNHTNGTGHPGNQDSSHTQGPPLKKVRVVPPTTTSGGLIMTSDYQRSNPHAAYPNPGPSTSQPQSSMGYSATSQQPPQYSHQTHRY
T5 sequence (P24863 whole entry partner): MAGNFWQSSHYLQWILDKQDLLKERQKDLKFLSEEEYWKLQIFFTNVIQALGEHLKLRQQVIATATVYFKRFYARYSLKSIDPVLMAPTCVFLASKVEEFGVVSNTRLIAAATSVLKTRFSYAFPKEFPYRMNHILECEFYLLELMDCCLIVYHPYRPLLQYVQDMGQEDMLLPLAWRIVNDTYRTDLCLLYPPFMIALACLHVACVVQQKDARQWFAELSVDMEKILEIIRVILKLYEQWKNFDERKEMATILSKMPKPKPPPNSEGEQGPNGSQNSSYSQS
Procedure: as §1

HIPK3 = biological target: T6, HIPK3 (Homo sapiens, UniProt Q9H422)
T6 construct: purchased Reaction Biology Europe GmbH (formerly ProQinase)
Procedure: as §1

JAK3 = biological target: T7, JAK3 (Homo sapiens, UniProt P52333)
T7 construct: purchased Reaction Biology Europe GmbH (formerly ProQinase)
T7 sequence (P52333 1-1124): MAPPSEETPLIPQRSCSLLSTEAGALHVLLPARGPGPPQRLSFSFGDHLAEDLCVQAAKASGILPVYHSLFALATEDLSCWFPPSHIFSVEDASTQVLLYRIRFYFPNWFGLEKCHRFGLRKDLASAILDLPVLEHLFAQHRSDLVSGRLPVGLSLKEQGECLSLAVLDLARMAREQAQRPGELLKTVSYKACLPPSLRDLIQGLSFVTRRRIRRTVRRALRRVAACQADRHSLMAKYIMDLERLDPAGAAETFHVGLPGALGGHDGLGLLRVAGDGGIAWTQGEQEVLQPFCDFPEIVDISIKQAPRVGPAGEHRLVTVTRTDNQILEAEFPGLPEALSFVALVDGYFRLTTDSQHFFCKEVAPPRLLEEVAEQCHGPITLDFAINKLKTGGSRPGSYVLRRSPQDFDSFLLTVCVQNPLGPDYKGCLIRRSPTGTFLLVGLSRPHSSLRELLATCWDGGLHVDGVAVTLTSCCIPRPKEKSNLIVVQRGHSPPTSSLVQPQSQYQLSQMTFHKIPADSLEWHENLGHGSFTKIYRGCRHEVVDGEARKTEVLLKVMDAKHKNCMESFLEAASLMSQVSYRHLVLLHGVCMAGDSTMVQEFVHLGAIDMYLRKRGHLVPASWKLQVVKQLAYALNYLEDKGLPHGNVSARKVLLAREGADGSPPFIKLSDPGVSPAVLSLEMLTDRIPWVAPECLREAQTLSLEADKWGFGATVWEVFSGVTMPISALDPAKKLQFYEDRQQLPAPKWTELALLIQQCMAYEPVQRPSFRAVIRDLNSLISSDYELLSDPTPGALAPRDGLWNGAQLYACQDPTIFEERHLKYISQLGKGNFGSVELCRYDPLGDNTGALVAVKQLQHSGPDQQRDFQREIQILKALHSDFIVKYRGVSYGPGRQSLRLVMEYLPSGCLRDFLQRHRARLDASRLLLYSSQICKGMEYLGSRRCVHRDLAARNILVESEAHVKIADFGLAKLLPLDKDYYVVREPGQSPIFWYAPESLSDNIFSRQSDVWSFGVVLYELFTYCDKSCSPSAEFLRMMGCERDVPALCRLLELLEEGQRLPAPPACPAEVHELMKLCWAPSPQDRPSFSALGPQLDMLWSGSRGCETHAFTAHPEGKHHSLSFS
Procedure: as §1

MAP4K2 = biological target: T8, MAP4K2 (Homo sapiens, UniProt Q12851)
T8 construct: purchased Reaction Biology Europe GmbH (formerly ProQinase)
T8 sequence (Q12851 1-820): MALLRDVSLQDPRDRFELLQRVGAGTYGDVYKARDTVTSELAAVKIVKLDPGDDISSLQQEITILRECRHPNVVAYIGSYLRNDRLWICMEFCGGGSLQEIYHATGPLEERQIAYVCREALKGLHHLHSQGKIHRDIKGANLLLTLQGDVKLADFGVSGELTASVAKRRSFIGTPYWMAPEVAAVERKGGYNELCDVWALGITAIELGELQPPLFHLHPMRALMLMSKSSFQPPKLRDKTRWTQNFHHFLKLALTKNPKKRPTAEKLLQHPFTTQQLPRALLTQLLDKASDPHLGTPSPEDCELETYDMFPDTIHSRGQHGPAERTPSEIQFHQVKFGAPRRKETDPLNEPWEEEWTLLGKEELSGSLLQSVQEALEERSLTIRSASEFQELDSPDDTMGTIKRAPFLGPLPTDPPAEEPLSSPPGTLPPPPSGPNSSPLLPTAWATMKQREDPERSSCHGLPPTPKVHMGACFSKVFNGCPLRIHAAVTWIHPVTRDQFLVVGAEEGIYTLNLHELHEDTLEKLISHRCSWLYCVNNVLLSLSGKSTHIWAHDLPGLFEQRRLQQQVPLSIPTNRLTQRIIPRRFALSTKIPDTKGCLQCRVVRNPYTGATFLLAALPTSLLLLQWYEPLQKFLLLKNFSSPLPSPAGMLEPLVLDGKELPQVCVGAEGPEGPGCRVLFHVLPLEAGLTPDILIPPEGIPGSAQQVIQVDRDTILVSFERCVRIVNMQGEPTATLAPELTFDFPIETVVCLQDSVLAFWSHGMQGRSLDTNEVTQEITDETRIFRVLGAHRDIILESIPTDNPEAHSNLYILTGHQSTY
Procedure: as §1

MELK = biological target: T9, MELK (Homo sapiens, UniProt Q14680)
T9 construct: purchased Reaction Biology Europe GmbH (formerly ProQinase)
T9 sequence (Q14680 whole entry): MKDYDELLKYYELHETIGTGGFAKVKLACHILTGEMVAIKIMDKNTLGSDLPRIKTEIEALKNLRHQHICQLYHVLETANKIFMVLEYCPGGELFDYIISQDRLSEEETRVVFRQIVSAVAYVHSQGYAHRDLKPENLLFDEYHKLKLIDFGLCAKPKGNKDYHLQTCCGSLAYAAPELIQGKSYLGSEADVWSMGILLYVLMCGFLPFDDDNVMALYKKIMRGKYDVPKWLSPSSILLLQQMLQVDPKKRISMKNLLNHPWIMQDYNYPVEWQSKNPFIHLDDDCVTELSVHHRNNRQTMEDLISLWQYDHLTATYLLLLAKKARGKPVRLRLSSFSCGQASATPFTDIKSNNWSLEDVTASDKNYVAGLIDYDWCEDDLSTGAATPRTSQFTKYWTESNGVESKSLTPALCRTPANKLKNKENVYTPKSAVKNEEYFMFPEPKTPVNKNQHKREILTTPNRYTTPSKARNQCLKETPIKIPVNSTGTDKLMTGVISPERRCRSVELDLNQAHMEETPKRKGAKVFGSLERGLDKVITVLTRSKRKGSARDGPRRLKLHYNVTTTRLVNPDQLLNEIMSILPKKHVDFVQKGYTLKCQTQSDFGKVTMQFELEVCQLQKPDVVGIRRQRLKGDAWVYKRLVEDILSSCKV
Procedure: as §1

PAK1 = biological target: T10, PAK1 (Homo sapiens, UniProt Q13153)
T10 construct: purchased Reaction Biology Europe GmbH (formerly ProQinase)
T10 sequence (Q13153 whole entry): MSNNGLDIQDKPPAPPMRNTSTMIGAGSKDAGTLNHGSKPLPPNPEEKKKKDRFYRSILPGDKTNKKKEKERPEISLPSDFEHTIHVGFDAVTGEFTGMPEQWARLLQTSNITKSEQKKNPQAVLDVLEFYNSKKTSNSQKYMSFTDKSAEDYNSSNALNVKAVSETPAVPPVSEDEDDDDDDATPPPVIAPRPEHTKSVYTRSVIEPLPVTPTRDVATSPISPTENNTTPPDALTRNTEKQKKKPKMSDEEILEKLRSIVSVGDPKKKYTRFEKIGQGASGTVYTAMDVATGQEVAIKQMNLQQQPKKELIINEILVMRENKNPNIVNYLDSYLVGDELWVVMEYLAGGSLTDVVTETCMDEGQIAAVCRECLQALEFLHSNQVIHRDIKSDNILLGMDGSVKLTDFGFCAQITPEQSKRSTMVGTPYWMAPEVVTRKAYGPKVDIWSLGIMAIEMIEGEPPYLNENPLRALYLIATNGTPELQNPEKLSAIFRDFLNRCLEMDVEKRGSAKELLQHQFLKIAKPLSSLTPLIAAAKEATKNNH
Procedure: as §1

PKCβ2 = biological target: T11, PKCβ2 (Homo sapiens, UniProt P05771)
T11 construct: purchased Reaction Biology Europe GmbH (formerly ProQinase)
T11 sequence (P05771 1-673 isoform P05771-2): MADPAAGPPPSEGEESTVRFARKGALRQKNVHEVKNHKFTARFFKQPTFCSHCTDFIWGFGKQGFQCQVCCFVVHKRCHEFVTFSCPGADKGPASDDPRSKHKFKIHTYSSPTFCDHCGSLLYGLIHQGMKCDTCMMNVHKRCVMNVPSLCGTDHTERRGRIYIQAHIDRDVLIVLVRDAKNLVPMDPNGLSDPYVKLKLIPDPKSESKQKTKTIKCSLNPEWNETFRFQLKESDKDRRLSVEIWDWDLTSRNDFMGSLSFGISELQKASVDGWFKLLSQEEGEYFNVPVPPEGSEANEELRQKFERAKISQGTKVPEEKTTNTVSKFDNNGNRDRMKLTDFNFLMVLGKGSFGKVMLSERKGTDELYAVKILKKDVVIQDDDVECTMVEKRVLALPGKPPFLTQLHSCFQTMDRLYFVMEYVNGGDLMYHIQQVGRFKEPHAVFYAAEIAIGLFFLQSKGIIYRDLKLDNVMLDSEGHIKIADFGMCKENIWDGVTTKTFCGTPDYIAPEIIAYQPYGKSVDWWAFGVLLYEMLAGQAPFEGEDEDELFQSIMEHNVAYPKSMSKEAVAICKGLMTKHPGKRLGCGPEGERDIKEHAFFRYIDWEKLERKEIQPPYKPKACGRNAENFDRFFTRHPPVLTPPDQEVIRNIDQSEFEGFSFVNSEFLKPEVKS
Procedure: as §1

PKCϴ = biological target: T12, PKCϴ (Homo sapiens, UniProt Q04759)
T12 construct: purchased Reaction Biology Europe GmbH (formerly ProQinase)
T12 sequence (Q04759 whole entry): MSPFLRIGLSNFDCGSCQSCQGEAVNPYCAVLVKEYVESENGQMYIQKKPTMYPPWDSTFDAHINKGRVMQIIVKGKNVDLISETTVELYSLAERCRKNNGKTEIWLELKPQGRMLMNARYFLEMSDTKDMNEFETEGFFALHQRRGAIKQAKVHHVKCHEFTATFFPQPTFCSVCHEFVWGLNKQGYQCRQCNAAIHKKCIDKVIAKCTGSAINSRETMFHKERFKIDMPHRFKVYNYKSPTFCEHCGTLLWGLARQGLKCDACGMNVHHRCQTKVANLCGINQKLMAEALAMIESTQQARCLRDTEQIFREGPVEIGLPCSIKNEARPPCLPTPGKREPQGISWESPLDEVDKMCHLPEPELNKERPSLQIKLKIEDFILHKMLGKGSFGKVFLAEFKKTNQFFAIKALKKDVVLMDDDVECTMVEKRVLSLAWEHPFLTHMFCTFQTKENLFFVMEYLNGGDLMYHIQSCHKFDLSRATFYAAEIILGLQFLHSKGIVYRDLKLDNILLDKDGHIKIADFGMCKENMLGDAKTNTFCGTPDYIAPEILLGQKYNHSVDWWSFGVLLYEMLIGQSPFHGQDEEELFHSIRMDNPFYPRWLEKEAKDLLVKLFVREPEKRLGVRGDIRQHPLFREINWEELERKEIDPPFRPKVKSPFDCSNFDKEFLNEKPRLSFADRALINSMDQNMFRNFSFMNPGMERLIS
Procedure: as §1

TRKB = biological target: T13, TRKB (Homo sapiens, UniProt Q16620)
T13 construct: purchased Reaction Biology Europe GmbH (formerly ProQinase)
T13 sequence (Q16620 32-822): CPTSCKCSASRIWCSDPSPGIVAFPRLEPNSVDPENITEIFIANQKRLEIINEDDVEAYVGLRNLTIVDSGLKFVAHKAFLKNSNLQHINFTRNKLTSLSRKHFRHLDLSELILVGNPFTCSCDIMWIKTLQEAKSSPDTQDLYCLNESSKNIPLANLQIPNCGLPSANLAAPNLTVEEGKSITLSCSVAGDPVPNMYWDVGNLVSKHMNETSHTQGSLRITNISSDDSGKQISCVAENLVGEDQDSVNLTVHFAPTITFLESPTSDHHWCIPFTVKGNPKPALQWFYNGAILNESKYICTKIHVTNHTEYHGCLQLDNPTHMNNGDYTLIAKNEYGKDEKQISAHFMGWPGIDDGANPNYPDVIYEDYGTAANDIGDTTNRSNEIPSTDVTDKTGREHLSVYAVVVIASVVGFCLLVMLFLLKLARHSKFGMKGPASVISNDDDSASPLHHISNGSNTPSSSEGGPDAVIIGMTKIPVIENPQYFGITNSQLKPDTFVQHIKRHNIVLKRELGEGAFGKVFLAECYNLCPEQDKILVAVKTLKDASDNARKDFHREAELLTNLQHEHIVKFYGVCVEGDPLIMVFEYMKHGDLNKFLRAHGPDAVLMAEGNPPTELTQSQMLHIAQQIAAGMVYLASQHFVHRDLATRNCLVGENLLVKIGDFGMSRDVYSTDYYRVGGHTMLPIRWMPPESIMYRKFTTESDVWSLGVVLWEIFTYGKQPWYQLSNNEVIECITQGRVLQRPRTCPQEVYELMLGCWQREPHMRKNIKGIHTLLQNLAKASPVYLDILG
Procedure: as §1

T1 sequence (Q96RR4 whole entry): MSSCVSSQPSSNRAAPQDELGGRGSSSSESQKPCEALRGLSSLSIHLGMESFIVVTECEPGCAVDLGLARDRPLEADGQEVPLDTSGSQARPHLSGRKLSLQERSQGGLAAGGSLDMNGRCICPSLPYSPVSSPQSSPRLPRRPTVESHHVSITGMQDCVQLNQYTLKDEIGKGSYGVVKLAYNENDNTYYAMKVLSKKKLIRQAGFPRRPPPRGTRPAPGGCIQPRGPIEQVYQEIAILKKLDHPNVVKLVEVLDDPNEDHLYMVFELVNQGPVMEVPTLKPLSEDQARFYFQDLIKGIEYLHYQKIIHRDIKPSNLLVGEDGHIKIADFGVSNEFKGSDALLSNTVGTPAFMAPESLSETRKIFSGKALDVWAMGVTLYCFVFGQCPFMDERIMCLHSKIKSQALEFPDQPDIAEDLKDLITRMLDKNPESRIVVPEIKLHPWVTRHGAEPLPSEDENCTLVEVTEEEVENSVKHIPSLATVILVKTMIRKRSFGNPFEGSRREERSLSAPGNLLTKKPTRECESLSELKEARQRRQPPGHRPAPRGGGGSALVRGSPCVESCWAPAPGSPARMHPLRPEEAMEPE

| Structure (SMILES) | residual kinase activity (CAMKK2; 0.3 µM) | residual kinase activity (CDC42BPA; 0.3 µM) | residual kinase activity (CDK1/CycB1; 0.3 µM) | residual kinase activity (CDK2/CycD1; 0.3 µM) | residual kinase activity (CDK8/CycC; 0.3 µM) | residual kinase activity (HIPK3; 0.3 µM) | residual kinase activity (JAK3; 0.3 µM) | residual kinase activity (MAP4K2; 0.3 µM) | residual kinase activity (MELK; 0.3 µM) | residual kinase activity (PAK1; 0.3 µM) | residual kinase activity (PKCβ2; 0.3 µM) | residual kinase activity (PKCϴ; 0.3 µM) | residual kinase activity (TRKB; 0.3 µM) | also measured |
| --- | --- | --- | --- | --- | --- | --- | --- | --- | --- | --- | --- | --- | --- | --- |
| c1ccc(CNc2cc(-c3c[nH]c4ncccc34)ccn2)cc1 [meriolin 36] | 9 % of control | 1 % of control | 4 % of control | 6 % of control | 5 % of control | 45 % of control | 5 % of control | 3 % of control | 36 % of control | 85 % of control | 51 % of control | 2 % of control | 10 % of control | residual kinase activity (CAMKK2; 3 µM): 1 % of control; residual kinase activity (CDC42BPA; 3 µM): 1 % of control; residual kinase activity (CDK1/CycB1; 3 µM): 1 % of control; residual kinase activity (CDK2/CycD1; 3 µM): 5 % of control; residual kinase activity (CDK8/CycC; 3 µM): 2 % of control; residual kinase activity (HIPK3; 3 µM): 11 % of control; residual kinase activity (JAK3; 3 µM): -1 % of control; residual kinase activity (MAP4K2; 3 µM): 0 % of control; residual kinase activity (MELK; 3 µM): 9 % of control; residual kinase activity (PAK1; 3 µM): 76 % of control; residual kinase activity (PKCβ2; 3 µM): 11 % of control; residual kinase activity (PKCϴ; 3 µM): 1 % of control; residual kinase activity (TRKB; 3 µM): 2 % of control |
| COc1ccnc2[nH]cc(-c3cc(N)nc(N)c3)c12 [meriolin 16] | 55 % of control | 7 % of control | 5 % of control | 23 % of control | 4 % of control | 7 % of control | 15 % of control | 4 % of control | 14 % of control | 98 % of control | 71 % of control | 7 % of control | 29 % of control | residual kinase activity (CAMKK2; 0.03 µM): 92 % of control; residual kinase activity (CDC42BPA; 0.03 µM): 53 % of control; residual kinase activity (CDK1/CycB1; 0.03 µM): 29 % of control; residual kinase activity (CDK2/CycD1; 0.03 µM): 54 % of control; residual kinase activity (CDK8/CycC; 0.03 µM): 6 % of control; residual kinase activity (HIPK3; 0.03 µM): 53 % of control; residual kinase activity (JAK3; 0.03 µM): 58 % of control; residual kinase activity (MAP4K2; 0.03 µM): 22 % of control; residual kinase activity (MELK; 0.03 µM): 74 % of control; residual kinase activity (PAK1; 0.03 µM): 106 % of control; residual kinase activity (PKCβ2; 0.03 µM): 106 % of control; residual kinase activity (PKCϴ; 0.03 µM): 40 % of control; residual kinase activity (TRKB; 0.03 µM): 68 % of control |
